Experimental data taken from ChEMBL document CHEMBL3232824, “New synthesis of 3-(β-D-glucopyranosyl)-5-substituted-1,2,4-triazoles, nanomolar inhibitors of glycogen phosphorylase” (Eur J Med Chem, 2014).
The source made the active and inactive calls. The rule behind the calls is not given here.

Target: T1, Glycogen phosphorylase, muscle form (Oryctolagus cuniculus) (UniProt P00489)
T1 sequence (whole entry): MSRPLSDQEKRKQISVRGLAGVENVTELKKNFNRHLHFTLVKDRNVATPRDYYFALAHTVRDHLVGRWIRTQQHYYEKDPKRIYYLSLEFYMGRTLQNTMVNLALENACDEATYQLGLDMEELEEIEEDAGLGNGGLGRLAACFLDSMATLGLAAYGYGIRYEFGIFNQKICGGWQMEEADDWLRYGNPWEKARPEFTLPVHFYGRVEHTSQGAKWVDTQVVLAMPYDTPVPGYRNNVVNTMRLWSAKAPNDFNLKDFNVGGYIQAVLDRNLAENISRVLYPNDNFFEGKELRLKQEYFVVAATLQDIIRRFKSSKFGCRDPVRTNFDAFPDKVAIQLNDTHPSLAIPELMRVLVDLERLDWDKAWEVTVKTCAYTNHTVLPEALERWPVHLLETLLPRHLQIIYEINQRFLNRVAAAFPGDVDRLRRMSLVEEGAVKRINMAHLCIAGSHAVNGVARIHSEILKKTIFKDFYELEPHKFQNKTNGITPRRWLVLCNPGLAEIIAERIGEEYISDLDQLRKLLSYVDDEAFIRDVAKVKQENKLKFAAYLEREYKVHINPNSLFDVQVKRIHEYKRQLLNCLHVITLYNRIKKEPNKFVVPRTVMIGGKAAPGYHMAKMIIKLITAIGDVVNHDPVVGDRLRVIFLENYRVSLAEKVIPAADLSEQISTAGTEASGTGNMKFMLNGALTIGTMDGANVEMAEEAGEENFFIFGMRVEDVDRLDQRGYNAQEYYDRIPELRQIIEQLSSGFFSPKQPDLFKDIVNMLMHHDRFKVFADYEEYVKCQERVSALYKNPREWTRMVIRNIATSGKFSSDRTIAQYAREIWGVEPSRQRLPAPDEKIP
Experiment: Inhibition of rabbit muscle glycogen phosphorylase b at 625 uM

inhibition	Compound
inactive	O=C(O)c1ccc(-c2n[nH]c([C@@H]3O[C@H](CO)[C@@H](O)[C@H](O)[C@H]3O)n2)cc1
inactive	O=[N+]([O-])c1cc(-c2n[nH]c([C@@H]3O[C@H](CO)[C@@H](O)[C@H](O)[C@H]3O)n2)cc([N+](=O)[O-])c1
inactive	CC(C)(C)c1n[nH]c([C@@H]2O[C@H](CO)[C@@H](O)[C@H](O)[C@H]2O)n1

Target: T1, Glycogen phosphorylase, muscle form (Oryctolagus cuniculus)
Experiment: Inhibition of rabbit muscle glycogen phosphorylase b

inhibition	Compound
inactive	Cc1nc([C@@H]2O[C@H](CO)[C@@H](O)[C@H](O)[C@H]2O)no1

Target: T2, Glycogen phosphorylase, muscle form (Oryctolagus cuniculus, UniProt P00489)
T2 sequence (P00489 whole entry): T1 sequence (whole entry)
Experiment: not given

Compound	Ki
OC[C@H]1O[C@@H](c2nc(-c3ccc(C(F)(F)F)cc3)n[nH]2)[C@H](O)[C@@H](O)[C@@H]1O	111 µM
O=[N+]([O-])c1ccc(-c2n[nH]c([C@@H]3O[C@H](CO)[C@@H](O)[C@H](O)[C@H]3O)n2)cc1	33.5 µM
OC[C@H]1O[C@@H](c2nc(-c3ccccn3)n[nH]2)[C@H](O)[C@@H](O)[C@@H]1O	707 µM
Cc1cc(C)cc(-c2n[nH]c([C@@H]3O[C@H](CO)[C@@H](O)[C@H](O)[C@H]3O)n2)c1	39.7 µM
Cc1n[nH]c([C@@H]2O[C@H](CO)[C@@H](O)[C@H](O)[C@H]2O)n1	499 µM
CC(C)(C)c1ccc(-c2n[nH]c([C@@H]3O[C@H](CO)[C@@H](O)[C@H](O)[C@H]3O)n2)cc1	778 µM

Continued, values first:

Ki	Compound
14 µM	Nc1cc(N)cc(-c2n[nH]c([C@@H]3O[C@H](CO)[C@@H](O)[C@H](O)[C@H]3O)n2)c1
12 µM	OC[C@H]1O[C@@H](c2nc(-c3ccc4ccccc4c3)no2)[C@H](O)[C@@H](O)[C@@H]1O
2.9 µM	OC[C@H]1O[C@@H](c2nc(-c3ccc(O)cc3)n[nH]2)[C@H](O)[C@@H](O)[C@@H]1O
0.67 µM	Nc1ccc(-c2n[nH]c([C@@H]3O[C@H](CO)[C@@H](O)[C@H](O)[C@H]3O)n2)cc1
2.1 µM	OC[C@H]1O[C@@H](c2nc3cc4ccccc4cc3[nH]2)[C@H](O)[C@@H](O)[C@@H]1O
1.7 µM	Cc1ccc(-c2n[nH]c([C@@H]3O[C@H](CO)[C@@H](O)[C@H](O)[C@H]3O)n2)cc1
27 µM	OC[C@H]1O[C@@H](c2nc(-c3ccccc3)no2)[C@H](O)[C@@H](O)[C@@H]1O
1.9 µM	COc1ccc(-c2n[nH]c([C@@H]3O[C@H](CO)[C@@H](O)[C@H](O)[C@H]3O)n2)cc1
